Assay results from ChEMBL document CHEMBL1153599, “Synthesis of new chiral 2,5-disubstituted 1,3,4-thiadiazoles possessing gamma-butenolide moiety and preliminary evaluation of in vitro anticancer activity” (Eur J Med Chem, 2009).

Experiments:
HeLa [1] = experiment: Viability of human HeLa cells at 20 uM after 24 hrs by MTT assay
HeLa [2] = experiment: Viability of human HeLa cells at 10 uM after 24 hrs by MTT assay
HeLa [3] = experiment: Anticancer activity against human HeLa cells after 24 hrs by MTT assay; format: functional, cell-based
HeLa [4] = experiment: Viability of human HeLa cells at 5 uM after 24 hrs by MTT assay
HeLa [5] = experiment: Viability of human HeLa cells at 1 uM after 24 hrs by MTT assay
HeLa [6] = experiment: Viability of human HeLa cells at 0.1 uM after 24 hrs by MTT assay

Compound | viability at 20 µM (HeLa [1]) | viability at 10 µM (HeLa [2]) | IC50 (HeLa [3]) | viability at 5 µM (HeLa [4]) | viability at 1 µM (HeLa [5]) | viability at 0.1 µM (HeLa [6])
CC1CCC(C(C)C)C(O[C@H]2OC(=O)C(Br)=C2Sc2nnc(-c3ccc([N+](=O)[O-])cc3)s2)C1 (some centres not stated) | 24.5% | 34.5% | 900 nM | 30% | 47.6% | 59.2%
CC1CCC(C(C)C)C(O[C@H]2OC(=O)C(Br)=C2Sc2nnc(-c3ccccc3)s2)C1 (some centres not stated) | 29.7% | 28.1% | 3000 nM | 40.6% | 59.1% | 56.1%
CC1CCC(C(C)C)C(O[C@H]2OC(=O)C(Br)=C2Sc2nnc(-c3ccccc3O)s2)C1 (some centres not stated) | 33.4% | 42.3% | 2900 nM | 37.5% | 61.2% | 58.9%
CC1CCC(C(C)C)C(O[C@H]2OC(=O)C(Br)=C2Sc2nnc(-c3ccco3)s2)C1 (some centres not stated) | 27.2% | 36.9% | 1700 nM | 29.4% | 54.3% | 55.6%
CC1CCC(C(C)C)C(O[C@H]2OC(=O)C(Br)=C2Sc2nnc(-c3cccnc3)s2)C1 (some centres not stated) | 33% | 32.8% | 5600 nM | 52.3% | 59.5% | 56.4%
CC1CCC(C(C)C)C(O[C@H]2OC(=O)C(Br)=C2Sc2nnc(-c3ccc(Cl)cc3)s2)C1 (some centres not stated) | 26.8% | 35.1% | 2200 nM | 29.3% | 58.2% | 51%
CC1(C)C2CCC1(C)C(O[C@H]1OC(=O)C(Br)=C1Sc1nnc(-c3cccnc3)s1)C2 (some centres not stated) | 36.3% | 40.5% | 3400 nM | 45.4% | 56.3% | 58.9%
CC1(C)C2CCC1(C)C(O[C@H]1OC(=O)C(Br)=C1Sc1nnc(-c3ccncc3)s1)C2 (some centres not stated) | 40.6% | 39.4% | 3000 nM | 44.9% | 55.1% | 51.8%
CC1(C)C2CCC1(C)C(O[C@H]1OC(=O)C(Br)=C1Sc1nnc(-c3ccco3)s1)C2 (some centres not stated) | 34.3% | 28.6% | 1300 nM | 31.1% | 51.4% | 50.9%
COc1ccc(-c2nnc(SC3=C(Br)C(=O)O[C@@H]3OC3CC(C)CCC3C(C)C)s2)cc1 (some centres not stated) | 32.9% | 35.6% | 3700 nM | 47.1% | 55.6% | 56.4%
CC1CCC(C(C)C)C(O[C@H]2OC(=O)C(Br)=C2Sc2nnc(-c3ccncc3)s2)C1 (some centres not stated) | 22.3% | 26.8% | 1300 nM | 33.9% | 51.3% | 73.8%
CC1CCC(C(C)C)C(O[C@H]2OC(=O)C(Br)=C2Sc2nnc(-c3ccc(O)cc3)s2)C1 (some centres not stated) | 36% | 44.4% | 2600 nM | 36% | 59.4% | 60.6%
